Results: EP3958980B1, “TARGETED NOVEL TRIAZOLOTHIADIAZINE DERIVATIVES FOR THE TREATMENT OF LUNG CANCER” (Anadolu Universitesi, priority 2020, dated 2021)
Values after ≈ are worked out from the molar mass of the structure shown. Values joined by “and” are separate entries in the source; they are usually repeats but may differ in a detail not shown here. Equal entries are not always repeated.

Tests used:
[1] = biological target: T1, COX-1 (Homo sapiens, UniProt P23219); experiment: COX activity assay (colorimetric kit) on lysates of treated A549 cells, COX-1; assay type: cell-based; settings: 24 hours incubation, IC50 concentrations
T1 construct: endogenous in cells; host or cells: A549
T1 sequence (P23219 24-599): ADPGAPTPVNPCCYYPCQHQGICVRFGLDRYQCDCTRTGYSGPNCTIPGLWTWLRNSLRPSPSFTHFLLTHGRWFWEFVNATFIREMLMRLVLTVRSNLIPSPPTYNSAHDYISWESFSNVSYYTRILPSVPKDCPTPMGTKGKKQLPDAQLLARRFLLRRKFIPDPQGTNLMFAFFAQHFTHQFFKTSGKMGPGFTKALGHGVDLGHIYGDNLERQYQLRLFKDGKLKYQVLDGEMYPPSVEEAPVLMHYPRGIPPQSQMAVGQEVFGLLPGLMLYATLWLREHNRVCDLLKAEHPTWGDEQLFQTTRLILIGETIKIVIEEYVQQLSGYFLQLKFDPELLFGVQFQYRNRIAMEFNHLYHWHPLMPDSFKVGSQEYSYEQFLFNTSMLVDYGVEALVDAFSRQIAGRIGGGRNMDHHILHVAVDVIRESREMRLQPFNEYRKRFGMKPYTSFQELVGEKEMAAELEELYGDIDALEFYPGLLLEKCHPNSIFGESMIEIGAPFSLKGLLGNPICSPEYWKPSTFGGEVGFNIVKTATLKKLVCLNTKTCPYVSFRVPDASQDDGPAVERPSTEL
Method: The intracellular COX, Akt and ROCK inhibitory effects of the active compounds determined with the MTT assay, were measured with the colorimetric assay according to the manufacturer's recommendations.
COX activity was carried out using Cayman COX activity assay kit in compliance with the manufacturer's recommendations. Briefly, 150 µL of each sample was kept in boiling water for 5 minutes and centrifuged at 8000 × g for 1 minute and it was used to obtain background values. […] 110 µL assay solution, 10 µL hemin and 40 µL sample, 10 µL DuP-697 or SC-560 was added to the inhibitor wells (DuP-697 inhibits COX-2 activity; while SC-560 inhibits COX-1 activity). The plate was shaked for a few seconds and it was left at 25 °C for 5 minutes. 20 µL colorimetric substrate was added to all wells. Moreover, a reaction was started by adding 20 µL arachidonic acid solution and the plate was shaked for a few seconds and it was left at 25 °C for 5 minutes. The absorbance values were read at 540 nm.

[2] = tested on: caspase-3; experiment: Caspase-3 activity by flow cytometry; assay type: cell-based, human; settings: A549 cells, 24 hours, IC50 concentrations
Method: After the active compounds were determined with the MTT assay, their caspase-3 activities on A549 cells depending on IC50 concentrations were determined in flow cytometry with BD, Pharmingen flow cytometry kit according to the manufacturer's recommendations. Briefly, the cells were incubated at the determined doses and times with the compounds. The cells were washed twice with cold 1 X PBS. These cells were suspended with BD Cytofix/Cytoperm solution (1×10^6 cell / 0.5 mL). Then they were left to wait on ice for 20 minutes. After centrifugation, the cells were removed with the BD Cytofix/Cytoperm solution. The cells were washed twice with BD Perm/Wash™ buffer (1×10^6 cell/0.5 mL). Afterwards the cells were re-suspended with BD Perm/Wash™ buffer and antibodies and they were kept at room temperature for 30 minutes. For each test, the cells were washed in 1 mL BD Perm/Wash^TM buffer and were suspended in 0.5 mL BD Perm/Wash^TM buffer and they were analyzed with flow cytometry.

[3] = tested on: A549 cells; experiment: JC-1 staining, mitochondrial membrane integrity by flow cytometry; assay type: cell-based, human; settings: 24 hours, IC50 concentrations
Method: After the active compounds were determined with the MTT assay, the determination of mitochondrial membrane integrity in A549 cells depending on IC50 concentrations were carried out in flow cytometry with BD, Pharmingen flow cytometry kit according to the manufacturer's recommendations. Briefly, the cells were seeded with optimal density (must not exceed 1×10^6 cell/mL). Following this, the cells were incubated with concentrations and time suitable for the compounds to be tested. After treatment, each cell suspension was transferred into a 15 mL polystyrene centrifuge tube and the cells were centrifuged at 400 × g for 5 minutes at room temperature, and supernatant was removed. Later, 0.5 mL freshly prepared working solution was added to each pellet and was vortexed. The cells were incubated in JC-1 working solution at 37 °C for 10-15 minutes and they were washed twice. In the first wash, 2 mL 1X assay buffer was added and the cells were precisely suspended. Following this, the cells were centrifuged at 400 × g for 5 minutes and the supernatant was removed carefully. In the next wash, 1 mL 1X assay buffer was added and was vortexed. After the cells were centrifuged at 400 × g for 5 minutes, each cell pellet was suspended in a 0.5 mL 1X assay buffer and was vortexed. Finally, the cell is analyzed with flow cytometry.

[4] = tested on: A549 cells; experiment: Annexin V FITC / PI flow cytometry (apoptosis); assay type: cell-based, human; settings: IC50 concentrations; for Early apoptotic cells% / Late apoptotic cells% / Necrosis% / Viable cells%: 24 hours; for early and late apoptotic effects: sum of early and late apoptotic cells
Method: Briefly, after the cells were centrifuged for 4 minutes at 800 rpm, they were washed twice with 1 × PBS and were suspended in the 1 × Annexin-V binding solution at a concentration of 2-3 × 10^6 cell/mL and then 100 µL of the cell solution was transferred into tubes. Then, 5 µL of Annexin-V Fluorescein isothiocyanate (FITC) and 10 µL of propidium iodide (PI) solution were added to each tube, after incubation for 15 minutes at room temperature, 400 µL × Annexin-V binding solution was added to each tube and the cells were analyzed by flow cytometry (BD FACSCalibur™) within 1 hour. The early and late apoptotic cell percentages were calculated according to positive control.

[5] = tested on: CCD-19Lu normal lung fibroblast cells; experiment: MTT assay, in vitro cytotoxic activity on CCD-19Lu; assay type: cell-based; settings: for IC50: Homo sapiens, CCD 19Lu, 24 hour incubation, read-out: IC50 values (µg/mL) CCDLul9 cell line
Method: The in vitro cytotoxic effects of the compounds were determined with the MTT assay. For this purpose, MTT test was performed using A549 and CCD-19Lu cell lines. After the cell lines used in the invention were centrifuged following taking them out from liquid nitrogen (-196 °C), the cells were cultured in a CO2 incubator comprising 5% CO2 at 37 °C in flasks containing 10% fetal bovine serum (FBS), where CCD-19Lu cells were cultured with Dulbecco's Modified Eagle's Medium (DMEM) and A549 cells were cultured with Roswell Park Memorial Institute (RPMI). The cells that reach the sufficient number for the assay, were seeded to 96 well plates such that 2×10^3 cells were placed in each well and at the same time, components at concentrations of 1-500 µg/mL were added to cells and they were incubated at 37 °C. At the end of the 24 hour incubation period, the MTT powder (5 mg/mL in 1 × phosphate buffered saline (PBS)) was added to each well (20 µL). After a 2-4 h period under the same conditions, the medium was removed from the plate and 100 µL of DMSO was added to each well to dissolve the dye and kept for 10 minutes. Then the plates were read at a wavelength of 540 nm using ELx808-IU Bio-Tek plate reader. The control cell viability which was not treated with the components was accepted to be 100% and the viability rates of the cells were expressed as %. […] According to the results obtained, the dose range was extended until the IC50 value was determined.
MTT assay is a frequently used method which measures the cytotoxic effects of the compounds on the cells by converting the yellow colored MTT stain into purple colored formazan crystals via the mitochondrial succinate dehydrogenase activity. In the cytotoxic activity tests of the compounds, A549 lung adenocarcinoma and CCDLu19 normal lung fibroblast cell lines were used.

Compound	COX-1 Inhibition% [1] [%]	COX-1 activity (U/mL) [1] [U/mL]	Caspase-3 negative (-) cells% [2] [%]	Caspase-3 positive (+) cells% [2] [%]	Mitochondrial membrane depolarized (P2) cells% [3] [%]	Mitochondrial membrane polarized (P1) cells% [3] [%]	Early apoptotic cells% [4] [%]	Late apoptotic cells% [4] [%]	Necrosis% [4] [%]	early and late apoptotic effects [4]	cytotoxicity against CCDLu19 cells (in words) [5]	IC50 [5] [µg/mL]	Viable cells% [4] [%]
N.N.[Cl][Pt][Cl] [Cisplatin, reference compound]	24.65	3.08	89.70	10.30	48.00	52.40	14.70	30.10	28.70	44.80%			
CS(=O)(=O)c1ccc(C2=Nn3c(CCc4ccc5c(c4)OCO5)nnc3SC2)cc1 [Compound 9]	35.21	3.41	96.70	3.40	8.80	91.10	5.00	16.20	6.30	21.20%	non-cytotoxic	102 ± 10.4 (≈ 230 µM)	72.50
FC(F)(F)c1ccc(C2=Nn3c(CCc4ccc5c(c4)OCO5)nnc3SC2)cc1 [Compound 11, 3-[2-(1,3-Benzodioxole-5-yl)ethyl]-6-(4-trifluoromethylphenyl)-7H-[1,2,4]triazolo [3,4-b][1,3,4]thiadiazine]	54.18	1.88	97.00	3.10	58.80	41.30	2.90	9.90	14.80	12.80%	non-cytotoxic	113 ± 5.77 (≈ 262 µM)	72.30
Fc1cccc(C2=Nn3c(CCc4ccc5c(c4)OCO5)nnc3SC2)c1 [Compound 12, 3-[2-(1,3-Benzodioxole-5-yl)ethyl]-6-(3-fluorophenyl)-7H-[1,2,4]triazolo [3,4-b] [1,3,4]thiadiazine]		2.51	97.80	2.40	47.00	53.00	4.80	29.70	40.80	34.50% and 25.90%	non-cytotoxic	34.3 ± 2.08 (≈ 89.8 µM)	24.70
c1ccc(-c2ccc(C3=Nn4c(CCc5ccc6c(c5)OCO6)nnc4SC3)cc2)cc1 [Compound 14, 3-[2-(1,3-Benzodioxole-5-yl)ethyl]-6-(biphenyl-4-yl)-7H-[1,2,4]triazolo[3,4-b] [1,3,4]thiadiazine]	2.19	4.15	96.60	3.70	47.20	53.20	4.20	21.70	34.60	25.90% and 34.50%	non-cytotoxic	65 ± 5 (≈ 148 µM)	39.50
